According to patent publication US10221170B2, “Difluoropyrrolidines as orexin receptor modulators” (Eolas Therapeutics, Inc., priority 2014, dated 2019):

How the values were obtained:
[1] = target: T1, OX1 (Homo sapiens, UniProt O43613); assay: Orexin receptor cell-based functional assay (FLIPR [Ca2+]i), OX1; settings: CHO-OX1 cells, FLIPR calcium, EC90 of OXA
T1 construct: expressed in transfected cells; host or cells: CHO (CHO-OX1)
T1 sequence (O43613 1-425): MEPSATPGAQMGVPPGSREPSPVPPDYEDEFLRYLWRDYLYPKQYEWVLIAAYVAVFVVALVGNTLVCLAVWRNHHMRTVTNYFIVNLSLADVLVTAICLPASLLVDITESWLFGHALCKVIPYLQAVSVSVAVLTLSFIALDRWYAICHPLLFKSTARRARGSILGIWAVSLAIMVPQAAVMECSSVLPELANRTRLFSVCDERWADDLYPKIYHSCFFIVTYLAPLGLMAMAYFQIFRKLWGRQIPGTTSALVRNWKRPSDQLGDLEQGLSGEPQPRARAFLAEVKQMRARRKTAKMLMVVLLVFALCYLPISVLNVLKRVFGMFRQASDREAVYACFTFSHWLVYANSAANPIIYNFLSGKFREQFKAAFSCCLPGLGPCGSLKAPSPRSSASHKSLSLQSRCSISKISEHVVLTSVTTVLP
Procedure: (§1) Measurement of [Ca^2+]i using a FLIPR: CHO-OX1 or CHO-OX2 cells were seeded into black-walled clear-base 384-well plates (Corning, catalog #3712) at a density of 20,000 cells per well in F12-K medium supplemented with 10% FBS and then incubated in a 5% CO2, 37 C incubator overnight to reach 90% confluency. The cells were incubated with equal volume of calcium6 loading buffer (Molecular Devices, Inc.) containing 2.5 mM probenecid at 37° C. for 2 h, followed by test compounds (dose-range 0.1 nM-10 μM) for another 30 min. The plates were then placed into a FLIPR (Molecular Devices, Inc.) to monitor fluorescence (λ excitation 488 nm, λ emission 540 nm) before and after the addition of EC90 of [OXA].

[2] = target: T2, OX2 (Homo sapiens, UniProt O43614); assay: Orexin receptor cell-based functional assay (FLIPR [Ca2+]i), OX2; settings: CHO-OX2 cells, FLIPR calcium, EC90 of OXA
T2 construct: expressed in transfected cells; host or cells: CHO (CHO-OX2)
T2 sequence (O43614 1-444): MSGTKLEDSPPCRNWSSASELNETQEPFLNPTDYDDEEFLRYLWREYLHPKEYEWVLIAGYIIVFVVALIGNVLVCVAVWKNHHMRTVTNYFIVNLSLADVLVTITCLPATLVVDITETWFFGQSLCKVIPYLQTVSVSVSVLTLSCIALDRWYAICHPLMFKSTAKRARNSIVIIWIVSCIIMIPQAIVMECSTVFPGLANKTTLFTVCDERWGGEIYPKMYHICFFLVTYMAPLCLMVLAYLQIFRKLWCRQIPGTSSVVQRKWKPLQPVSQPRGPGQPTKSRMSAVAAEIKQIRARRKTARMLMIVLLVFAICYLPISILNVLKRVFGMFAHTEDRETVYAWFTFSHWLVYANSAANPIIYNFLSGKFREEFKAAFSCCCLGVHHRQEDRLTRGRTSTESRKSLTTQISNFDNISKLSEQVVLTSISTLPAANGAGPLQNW
Procedure: as §1

SMILES | IC50 [1] [nM] | IC50 [2] [nM]
Cc1c(F)ccc(C(=O)N2CCC(F)(F)[C@H]2CNc2ncc(C(F)(F)F)cn2)c1-n1nccn1 [Example 7] | 15 | > 5000
Cc1ccc(-n2nccn2)c(C(=O)N2CCC(F)(F)[C@H]2COc2ccc(C(F)(F)F)cn2)c1 [Example 25] | 230 | > 5000
O=C(c1cc(F)c(F)cc1-n1nccn1)N1CCC(F)(F)[C@H]1CNc1ncc(C(F)(F)F)cn1 [Example 51] | 24 | 840
O=C(c1ccc(F)cc1-n1nccn1)N1CCC(F)(F)[C@H]1CNc1ncc(C(F)(F)F)cn1 [Example 53] | 15 | 830
O=C(c1ccc(F)c(F)c1-n1nccn1)N1CCC(F)(F)[C@H]1CNc1ncc(C(F)(F)F)cn1 [Example 59] | 757 | > 5000
Cc1cc(C)c(-n2nccn2)c(C(=O)N2CCC(F)(F)[C@H]2CNc2ncc(C(F)(F)F)cn2)c1 [Example 60] | 16 | > 5000
O=C(c1cc(F)ccc1-n1nccn1)N1CCC(F)(F)[C@H]1CNc1ncc(Cl)cn1 [Example 64] | 22 | > 5000
O=C(c1ccc(F)c(F)c1-n1nccn1)N1CCC(F)(F)[C@H]1CNc1ncc(Cl)cn1 [Example 67] | 1000 | > 5000
Cc1ccc(C(=O)N2CCC(F)(F)[C@H]2CNc2ncc(Cl)cn2)c(-n2nccn2)c1F [Example 68] | 105 | > 5000
Cc1c(F)ccc(C(=O)N2CCC(F)(F)[C@H]2CNc2ncc(Cl)cn2)c1-n1nccn1 [Example 69] | 21 | > 5000
O=C(c1ncccc1-n1nccn1)N1CCC(F)(F)[C@H]1CNc1ncc(Cl)cn1 [Example 70] | 20 | > 5000
O=C(c1cc(F)ccc1-n1nccn1)N1CCC(F)(F)[C@H]1COc1ccc(C(F)(F)F)cn1 [Example 74] | 660 | > 5000

The next molecules have a lower IC50 [1] than those just listed; values first:

IC50 [1] [nM] | IC50 [2] [nM] | SMILES
1 | > 5000 | Cc1nc(C(=O)N2CCC(F)(F)[C@H]2CNc2ncc(C(F)(F)F)cn2)c(-c2ccc(F)cc2)s1 [Example 1]
4 | > 5000 | Cc1ccc(-n2nccn2)c(C(=O)N2CCC(F)(F)[C@H]2CNc2ncc(C(F)(F)F)cn2)c1 [Example 2]
4 | > 5000 | O=C(c1cccc(F)c1-n1nccn1)N1CCC(F)(F)[C@H]1CNc1ncc(C(F)(F)F)cn1 [Example 3]
4 | > 5000 | O=C(c1cc(F)ccc1-n1nccn1)N1CCC(F)(F)[C@H]1CNc1ncc(C(F)(F)F)cn1 [Example 5]
11 | > 5000 | Cc1ccc(C(=O)N2CCC(F)(F)[C@H]2CNc2ncc(C(F)(F)F)cn2)c(-n2nccn2)c1F [Example 8]
2 | > 5000 | O=C(c1cc(F)ccc1-c1ncccn1)N1CCC(F)(F)[C@H]1CNc1ncc(C(F)(F)F)cn1 [Example 10]
6 | > 5000 | O=C(c1c(-n2nccn2)ccc(F)c1F)N1CCC(F)(F)[C@H]1CNc1ncc(C(F)(F)F)cn1 [Example 52]
3 | > 5000 | O=C(c1cc(Cl)ccc1-n1nccn1)N1CCC(F)(F)[C@H]1CNc1ncc(C(F)(F)F)cn1 [Example 54]
7 | > 5000 | Cc1cccc(C(=O)N2CCC(F)(F)[C@H]2CNc2ncc(C(F)(F)F)cn2)c1-n1nccn1 [Example 55]
14 | > 5000 | N#Cc1ccc(-n2nccn2)c(C(=O)N2CCC(F)(F)[C@H]2CNc2ncc(C(F)(F)F)cn2)c1 [Example 56]
3 | > 5000 | O=C(c1c(F)cccc1-n1nccn1)N1CCC(F)(F)[C@H]1CNc1ncc(C(F)(F)F)cn1 [Example 57]
14 | > 5000 | Cc1cccc(-n2nccn2)c1C(=O)N1CCC(F)(F)[C@H]1CNc1ncc(C(F)(F)F)cn1 [Example 58]
3 | > 5000 | Cc1cccc(C(=O)N2CCC(F)(F)[C@H]2CNc2ncc(Cl)cn2)c1-n1nccn1 [Example 63]
6 | > 5000 | Cc1ccc(-n2nccn2)c(C(=O)N2CCC(F)(F)[C@H]2CNc2ncc(Cl)cn2)c1 [Example 65]
6 | > 5000 | N#Cc1ccc(-n2nccn2)c(C(=O)N2CCC(F)(F)[C@H]2CNc2ncc(Cl)cn2)c1 [Example 66]
3 | 720 | O=C(c1cc(F)ccc1-n1nccn1)N1CCC(F)(F)[C@H]1CNc1cnc(C(F)(F)F)cn1 [Example 77]
